# Laboratory results: patent US10745346B2, “Agonists of protein tyrosine phosphatase SHP-1” (priority 2015, dated 2020)
# pIC50: −log10 of the molar value.
# What was measured:
# [1] = biological target: Recombinant SHP-1 protein (Homo sapiens, UniProt P29350); experiment: SHP-1 phosphatase activity assay (RediPlate 96 EnzChek Tyrosine Phosphatase Assay kit); format: biochemical; details: SC derivatives at 1 μM for 2 hr; recombinant SHP-1 25 ng; control DMSO = 100; mean±SD (N=3)
# Description: Effects of SC Derivatives on Phosphatase Activity in Recombinant SHP-1 RediPlate 96 EnzChek Tyrosine Phosphatase Assay kit (R-22067) was used for SHP-1 activity assay (Molecular Probes). Recombinant SHP-1 protein (25 ng) was reacted with SC derivatives at 1 μM for 2 hr. Then the SHP-1 phosphatase activity assay was performed according to the user's manual and the absorbance was measured at 465 nm. The control group was DMSO, which functioned as the solvent of the SC derivatives. The values were expressed by mean±SD (N=3).
# [2] = test system: PLC5 cells (a hepatocellular carcinoma cell line); experiment: Cytotoxicity, MTT cell viability assay; format: cell-based; details: 72 h exposure
# Description: PLC5 cells (a hepatocellular carcinoma cell line) were seeded at 5×10^3 cells per well in 96-well plates. Then, cells were exposed to SC derivatives at the indicated doses for 72 h. After that, cells were incubated with MTT (1 mg/ml) (Sigma-Aldrich, St. Louis, Mo.) for 2 h at 37° C. Cell viability was then assessed by measuring the absorbance at 570 nm using a microplate reader.
# Chain of Recombinant SHP-1 protein (P29350 whole entry): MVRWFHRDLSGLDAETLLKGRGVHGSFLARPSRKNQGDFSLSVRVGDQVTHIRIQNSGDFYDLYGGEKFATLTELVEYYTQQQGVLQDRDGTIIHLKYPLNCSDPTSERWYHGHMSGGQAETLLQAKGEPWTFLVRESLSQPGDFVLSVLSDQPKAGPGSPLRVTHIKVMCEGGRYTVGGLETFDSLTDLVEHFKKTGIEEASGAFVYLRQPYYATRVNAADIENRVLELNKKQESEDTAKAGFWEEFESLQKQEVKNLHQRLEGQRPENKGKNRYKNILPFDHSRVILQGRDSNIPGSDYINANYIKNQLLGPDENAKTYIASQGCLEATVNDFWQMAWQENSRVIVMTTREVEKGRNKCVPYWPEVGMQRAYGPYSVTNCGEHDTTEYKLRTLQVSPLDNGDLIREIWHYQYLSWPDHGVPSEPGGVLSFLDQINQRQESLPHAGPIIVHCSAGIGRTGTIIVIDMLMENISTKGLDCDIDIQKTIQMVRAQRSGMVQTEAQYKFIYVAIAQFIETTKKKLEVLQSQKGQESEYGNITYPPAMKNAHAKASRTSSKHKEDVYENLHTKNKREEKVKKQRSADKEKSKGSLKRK
Compound,SHP-1 Activity (% of control) [1],pIC50 [2]
"Cc1ccc(NC(=O)Nc2cc(Oc3ccc(C#N)cc3)ccc2F)cc1Oc1ccc(C#N)nc1 [compound 110, 1-(5-(4-cyanophenoxy)-2-fluorophenyl)-3-(3-((6-cyanopyridin-3-yl)oxy)-4-methylphenyl)urea]",146.29 ± 12.80 % of control,5.12
"C#Cc1cccc(NC(=O)N2CCOc3cc(Oc4ccc(C#N)cc4)ccc32)c1 [compound 162, 7-(4-cyanophenoxy)-N-(3-ethynylphenyl)-2H-benzo[b][1,4]oxazine-4(3H)-carboxamide]",141.39 ± 15.44 % of control,5.51
"Cc1cc(Oc2cc(NC(=O)Nc3ccc(C)c(Oc4ccc(C#N)c(C)c4)c3)ccc2C)ccc1C#N [compound 98, 1,3-bis(3-(4-cyano-3-methylphenoxy)-4-methylphenyl)urea]",88.80 ± 14.30 % of control,6.85
"Cc1ccc(NC(=O)Nc2ccc(Cl)c(C(F)(F)F)c2)cc1Oc1ccc(C#N)c2ccccc12 [compound 114, 1-(4-chloro-3-(trifluoromethyl)phenyl)-3-(3-((4-cyanonaphthalen-1-yl)oxy)-4-methylphenyl)urea]",156.85 ± 6.04 % of control,6.12
"N#Cc1ccc(Oc2ccc(Cl)c(NC(=O)Nc3ccc(F)c(C(F)(F)F)c3)c2)cc1 [compound 143, 1-(2-chloro-5-(4-cyanophenoxy)phenyl)-3-(4-fluoro-3-(trifluoromethyl)phenyl)urea]",198.37 ± 32.5 % of control,6.21
"N#Cc1ccc(Oc2cc(NC(=O)Nc3ccc(Cl)c(C(F)(F)F)c3)ccc2F)cc1 [compound 111, 1-(4-chloro-3-(trifluoromethyl)phenyl)-3-(3-(4-cyanophenoxy)-4-fluorophenyl)urea]",156.55 ± 5.99 % of control,6.62
"N#Cc1ccc(Oc2ccc(F)c(NC(=O)Nc3cc(Oc4ccc(C#N)cc4)ccc3F)c2)cc1 [compound 97, 1,3-bis(5-(4-cyanophenoxy)-2-fluorophenyl)urea]",127.01 ± 9.02 % of control,< 5.00
"Cc1ccc(NC(=O)Nc2ccc(Cl)c(C(F)(F)F)c2)cc1Oc1ccc(C#N)c(Br)c1 [compound 89, 1-(3-(3-bromo-4-cyanophenoxy)-4-methylphenyl)-3-(4-chloro-3-(trifluoromethyl)phenyl)urea]",143.45 ± 15.17 % of control,6.08
"Cc1ccc(NC(=O)Nc2ccc(C)c(Oc3ccc(C#N)c(F)c3)c2)cc1Oc1ccc(C#N)c(F)c1 [compound 84, 1,3-bis(3-(4-cyano-3-fluorophenoxy)-4-methylphenyl)urea]",108.62 ± 10.55 % of control,< 5.00
"Cc1ccc(Oc2ccc(C#N)cc2)cc1NC(=O)Nc1cc(Oc2ccc(C#N)cc2)ccc1C [compound 93, 1,3-bis(5-(4-cyanophenoxy)-2-methylphenyl)urea]",94.07 ± 0.82 % of control,< 5.00
"C#Cc1cccc(NC(=O)Nc2ccc(Oc3ccc(CC#N)cc3)cc2)c1 [compound 170, 1-(4-(4-(cyanomethyl)phenoxy)phenyl)-3-(3-ethynylphenyl)urea]",101.42 ± 7.86 % of control,< 5.00
"N#CCc1ccc(Oc2ccc(NC(=O)Nc3cc(C(F)(F)F)cc(C(F)(F)F)c3)cc2)cc1 [compound 172, 1-(3,5-bis(trifluoromethyl)phenyl)-3-(4-(4-(cyanomethyl)phenoxy)phenyl) urea]",215.34 ± 12.22 % of control,6.39
"Cc1ccc(NC(=O)Nc2ccc(Cl)c(C(F)(F)F)c2)cc1Oc1ccc(C#N)cc1 [compound 133, 1-(4-chloro-3-(trifluoromethyl)phenyl)-3-(3-(4-cyanophenoxy)-4-methylphenyl)urea]",253.18 ± 26.17 % of control,6.36
"N#Cc1ccc(Oc2cc(NC(=O)Nc3cc(C(F)(F)F)cc(C(F)(F)F)c3)ccc2Cl)cc1 [compound 148, 1-(3,5-bis(trifluoromethyl)phenyl)-3-(4-chloro-3-(4-cyanophenoxy)phenyl) urea]",363.95 ± 18.11 % of control,6.66
"N#CCc1ccc(Oc2ccc(NC(=O)Nc3ccc(Cl)c(C(F)(F)F)c3)cc2)cc1 [compound 171, 1-(4-chloro-3-(trifluoromethyl)phenyl)-3-(4-(4-(cyanomethyl)phenoxy)phenyl)urea]",116.66 ± 17.26 % of control,6.06
"N#Cc1ccc(Oc2ccc3c(c2)OCCN3C(=O)Nc2ccc(Cl)c(C(F)(F)F)c2)cc1 [compound 165, N-(4-chloro-3-(trifluoromethyl)phenyl)-7-(4-cyanophenoxy)-2H-benzo[b][1,4]oxazine-4(3H)-carboxamide]",169.27 ± 1.19 % of control,< 5.00

Compound,SHP-1 Activity (% of control) [1],pIC50 [2]
"Cc1ccc(NC(=O)Nc2cccc(C(F)(F)F)c2)cc1Oc1ccc(C#N)cc1 [compound 134, 1-(3-(4-cyanophenoxy)-4-methylphenyl)-3-(3-(trifluoromethyl)phenyl)urea]",152.29 ± 7.92 % of control,6.13
"N#Cc1ccc(Oc2ccc(Cl)c(NC(=O)Nc3ccc(Cl)c(C(F)(F)F)c3)c2)cc1 [compound 142, 1-(4-chloro-3-(trifluoromethyl)phenyl)-3-(2-chloro-5-(4-cyanophenoxy)phenyl)urea]",249.66 ± 5.81 % of control,6.35
"N#CCc1ccc(NC(=O)Nc2ccc(F)c(Oc3ccc(C#N)cc3)c2)cc1 [compound 153, 1-(4-(cyanomethyl)phenyl)-3-(3-(4-cyanophenoxy)-4-fluorophenyl)urea]",135.54 ± 5.11 % of control,5.74
"Cc1ccc(NC(=O)Nc2ccc(CC#N)cc2)cc1Oc1ccc(C#N)cc1 [compound 135, 1-(4-(cyanomethyl)phenyl)-3-(3-(4-cyanophenoxy)-4-methylphenyl)urea]",153.32 ± 14.65 % of control,5.73
"N#Cc1ccc(Oc2ccc(NC(=O)Nc3ccc(Cl)c(C(F)(F)F)c3)c(F)c2)cc1Cl [compound 108, 1-(4-chloro-3-(trifluoromethyl)phenyl)-3-(4-(3-chloro-4-cyanophenoxy)-2-fluorophenyl)urea]",133.11 ± 12.03 % of control,< 5.00
"N#Cc1ccc(Oc2ccc3c(c2)N(C(=O)Nc2ccc(F)c(C(F)(F)F)c2)CCO3)cc1 [compound 156, 6-(4-cyanophenoxy)-N-(4-fluoro-3-(trifluoromethyl)phenyl)-2H-benzo[b][1,4]oxazine-4(3H)-carboxamide]",112.47 ± 7.98 % of control,5.73
"N#Cc1ccc(Oc2ccc(NC(=O)Nc3ccc(Oc4ccc(C#N)cc4)cc3F)c(F)c2)cc1 [compound 106, 1,3-bis(4-(4-cyanophenoxy)-2-fluorophenyl)urea]",147.13 ± 8.51 % of control,< 5.00
Cc1ccc(NC(=O)C2(C(=O)O)CC2)cc1Oc1ccc(C#N)cc1 [compound 68],84.36 ± 11.31 % of control,< 5.00
"N#Cc1ccc(Oc2cc(NC(=O)Nc3ccc(Cl)c(C(F)(F)F)c3)ccc2Cl)cc1Cl [compound 179, 1-(4-chloro-3-(3-chloro-4-cyanophenoxy)phenyl)-3-(4-chloro-3-(trifluoromethyl)phenyl)urea]",99.11 ± 7.09 % of control,6.02
"Cc1ccc(NC(=O)Nc2ccc(C)c(Oc3ccc(C#N)cc3F)c2)cc1Oc1ccc(C#N)cc1F [compound 85, 1,3-bis(3-(4-cyano-2-fluorophenoxy)-4-methylphenyl)urea]",91.42 ± 10.47 % of control,< 5.00
"Cc1ccc(NC(=O)Nc2ccc(Cl)c(C(F)(F)F)c2)cc1Oc1ccc(C#N)c(F)c1 [compound 88, 1-(4-chloro-3-(trifluoromethyl)phenyl)-3-(3-(4-cyano-3-fluorophenoxy)-4-methylphenyl)urea]",100.48 ± 13.31 % of control,5.98
"N#Cc1ccc(Oc2ccc3cccc(NC(=O)Nc4cccc5ccc(Oc6ccc(C#N)cc6)cc45)c3c2)cc1 [compound 73, 1,3-bis(7-(4-cyanophenoxy)naphthalen-1-yl)urea]",102.24 ± 17.36 % of control,< 5.00
"Cc1ccc(NC(=O)Nc2ccc(C)c(Oc3ccc(C#N)c4ccccc34)c2)cc1Oc1ccc(C#N)c2ccccc12 [compound 113, 1,3-bis(3-((4-cyanonaphthalen-1-yl)oxy)-4-methylphenyl)urea]",153.49 ± 13.55 % of control,< 5.00
"C#Cc1cccc(NC(=O)Nc2ccc(C)c(Oc3ccc(C#N)cc3)c2)c1 [compound 66, 1-(3-(4-cyanophenoxy)-4-methylphenyl)-3-(3-ethynylphenyl)urea]",93.26 ± 9.30 % of control,< 5.00
"C#Cc1cccc(NC(=O)Nc2ccc(Cl)c(Oc3ccc(C#N)cc3)c2)c1 [compound 140, 1-(4-chloro-3-(4-cyanophenoxy)phenyl)-3-(3-ethynylphenyl)urea]",140.81 ± 2.48 % of control,6.08
"N#CCc1ccc(NC(=O)N2CCOc3cc(Oc4ccc(C#N)cc4)ccc32)cc1 [compound 167, N-(4-(cyanomethyl)phenyl)-7-(4-cyanophenoxy)-2H-benzo[b][1,4]oxazine-4(3H)-carboxamide]",110.58 ± 10.14 % of control,5.59
